Measurements taken from patent US11345912B2, “Directed evolution of multivalent glycopeptides that tightly bind to target proteins” (Brandeis University, priority 2013, dated 2022).

Target: 2G12
Test: BioLayer Interferometry (BLI) of 2G12 binding to surface-immobilized synthetic glycopeptide
Conditions: Table 6; evaluated by BLI, material prepared synthetically
Experimental: Biotinylation of 10F2 glycopeptide and determination of 2G12 binding by BLI (BioLayer Interferometry): 200 μg 10F2 glycopeptide in 5.5 μL water was treated with […] of 50 mM TCEP.HCl/1M Tris-HCl buffer, pH 7.8, under argon, using the same inert gas setup employed in the click procedure. After 4.5 h, the reaction mixture was injected into HPLC (Waters Symmetry, 300 C4, 5 μm, 4.6×250 mm, 1 mL/min, 2-42% over 60 min, retention time 46.8 min).
The 2G12 binding of the resulting biotinylated glycopeptide 3 was determined using a BLItz instrument (Fortebio). Biotin-10F2 was loaded (120 sec) onto a streptavidin biosensor as a 500 nM solution in Buffer 1 (20 mM Tris pH 7.5, 150 mM NaCl, 2 mM MgSO4, 0.20 mg/mL BSA, 0.02% Tween-20). The sensor was washed with Buffer 1 for 60 sec, after which time the net response due to loading was observed as 0.2 nm. The sensor was then equilibrated with Buffer 2 (20 mM Tris pH 7.5, 150 mM NaCl, 2 mM MgSO4, 2.0 mg/mL BSA, 0.1% v/v Tween-20) for 90 sec. 2G12 (prepared in Buffer 2) was associated at several concentrations (0.5, 1, 2, 4, 8, 16, 32 nM, in random order) for 600 sec, followed by dissociation into blank Buffer 2 for 600 sec. […]

SMILES	Kd
CC[C@H](C)[C@H](NC(=O)[C@@H](NC(=O)[C@@H](NC(=O)[C@H](Cc1c[nH]cn1)NC(=O)[C@H](CC(N)=O)NC(=O)[C@H](CC(=O)O)NC(=O)[C@H](CCc1cn(C2CCC(OC3O[C@H](CO[C@H]4O[C@H](CO[C@H]5O[C@H](CO)[C@@H](O)[C@H](O)[C@@H]5O[C@H]5O[C@H](CO)[C@@H](O)[C@H](O)[C@@H]5O)[C@@H](O)[C@H](O[C@H]5O[C@H](CO)[C@@H](O)[C@H](O)[C@@H]5O[C@H]5O[C@H](CO)[C@@H](O)[C@H](O)[C@@H]5O)[C@@H]4O)[C@@H](O)[C@H](O[C@H]4O[C@H](CO)[C@@H](O)[C@H](O)[C@@H]4O[C@H]4O[C@H](CO)[C@@H](O)[C@H](O)[C@@H]4O[C@H]4O[C@H](CO)[C@@H](O)[C@H](O)[C@@H]4O)[C@@H]3O)CC2)nn1)NC(=O)[C@@H](NC(=O)[C@H](CCCCN)NC(=O)[C@H](CCC(=O)O)NC(=O)[C@H](CCCNC(=N)N)NC(=O)[C@H](CCCCN)NC(=O)[C@H](CO)NC(=O)[C@H](CC(N)=O)NC(=O)[C@@H](NC(=O)[C@H](CCCCN)NC(=O)[C@@H](NC(=O)[C@H](C)NC(=O)[C@H](CCc1cn(C2CCC(OC3O[C@H](CO[C@H]4O[C@H](CO[C@H]5O[C@H](CO)[C@@H](O)[C@H](O)[C@@H]5O[C@H]5O[C@H](CO)[C@@H](O)[C@H](O)[C@@H]5O)[C@@H](O)[C@H](O[C@H]5O[C@H](CO)[C@@H](O)[C@H](O)[C@@H]5O[C@H]5O[C@H](CO)[C@@H](O)[C@H](O)[C@@H]5O)[C@@H]4O)[C@@H](O)[C@H](O[C@H]4O[C@H](CO)[C@@H](O)[C@H](O)[C@@H]4O[C@H]4O[C@H](CO)[C@@H](O)[C@H](O)[C@@H]4O[C@H]4O[C@H](CO)[C@@H](O)[C@H](O)[C@@H]4O)[C@@H]3O)CC2)nn1)NC=O)[C@@H](C)O)[C@@H](C)O)[C@@H](C)O)C(C)C)[C@@H](C)O)C(=O)N[C@@H](CCc1cn(C2CCC(OC3O[C@H](CO[C@H]4O[C@H](CO[C@H]5O[C@H](CO)[C@@H](O)[C@H](O)[C@@H]5O[C@H]5O[C@H](CO)[C@@H](O)[C@H](O)[C@@H]5O)[C@@H](O)[C@H](O[C@H]5O[C@H](CO)[C@@H](O)[C@H](O)[C@@H]5O[C@H]5O[C@H](CO)[C@@H](O)[C@H](O)[C@@H]5O)[C@@H]4O)[C@@H](O)[C@H](O[C@H]4O[C@H](CO)[C@@H](O)[C@H](O)[C@@H]4O[C@H]4O[C@H](CO)[C@@H](O)[C@H](O)[C@@H]4O[C@H]4O[C@H](CO)[C@@H](O)[C@H](O)[C@@H]4O)[C@@H]3O)CC2)nn1)C(=O)N[C@@H](CCCNC(=N)N)C(=O)N[C@@H](CO)C(=O)N[C@H](C(=O)N1CCC[C@H]1C(=O)N[C@@H](Cc1c[nH]c2ccccc12)C(=O)N[C@@H](Cc1ccc(O)cc1)C(=O)N[C@H](C(=O)N[C@@H](Cc1ccc(O)cc1)C(=O)N[C@@H](CCCNC(=N)N)C(=O)N[C@@H](Cc1c[nH]c2ccccc12)C(=O)N[C@@H](CC(C)C)C(=O)N1CCC[C@H]1C(=O)N[C@@H](CC(N)=O)C(=O)NCC(=O)N[C@@H](CO)C(=O)NCC(=O)N[C@@H](CO)C(=O)NCC(=O)N[C@@H](CS)C(=O)N[C@@H](C)C(=O)O)[C@@H](C)O)[C@@H](C)CC (some centres unmarked) [Clone 10V1-C7S, XATKTNSKREKTXDNHVTIXRSIPWYTYRWLPN]	5.6 nM
CC[C@H](C)[C@H](NC(=O)[C@@H](NC(=O)[C@@H](NC(=O)[C@H](Cc1c[nH]cn1)NC(=O)[C@H](CC(N)=O)NC(=O)[C@H](CC(=O)O)NC(=O)[C@H](CCc1cn(C2CCC(OC3O[C@H](CO[C@H]4O[C@H](CO[C@H]5O[C@H](CO)[C@@H](O)[C@H](O)[C@@H]5O[C@H]5O[C@H](CO)[C@@H](O)[C@H](O)[C@@H]5O)[C@@H](O)[C@H](O[C@H]5O[C@H](CO)[C@@H](O)[C@H](O)[C@@H]5O[C@H]5O[C@H](CO)[C@@H](O)[C@H](O)[C@@H]5O)[C@@H]4O)[C@@H](O)[C@H](O[C@H]4O[C@H](CO)[C@@H](O)[C@H](O)[C@@H]4O[C@H]4O[C@H](CO)[C@@H](O)[C@H](O)[C@@H]4O[C@H]4O[C@H](CO)[C@@H](O)[C@H](O)[C@@H]4O)[C@@H]3O)CC2)nn1)NC(=O)[C@@H](NC(=O)[C@H](CCCCN)NC(=O)[C@H](CCC(=O)O)NC(=O)[C@H](CCCNC(=N)N)NC(=O)[C@H](CCCCN)NC(=O)[C@H](C)NC(=O)[C@H](CC(N)=O)NC(=O)[C@@H](NC(=O)[C@H](CCCCN)NC(=O)[C@@H](NC(=O)[C@H](C)NC(=O)[C@H](CCc1cn(C2CCC(OC3O[C@H](CO[C@H]4O[C@H](CO[C@H]5O[C@H](CO)[C@@H](O)[C@H](O)[C@@H]5O[C@H]5O[C@H](CO)[C@@H](O)[C@H](O)[C@@H]5O)[C@@H](O)[C@H](O[C@H]5O[C@H](CO)[C@@H](O)[C@H](O)[C@@H]5O[C@H]5O[C@H](CO)[C@@H](O)[C@H](O)[C@@H]5O)[C@@H]4O)[C@@H](O)[C@H](O[C@H]4O[C@H](CO)[C@@H](O)[C@H](O)[C@@H]4O[C@H]4O[C@H](CO)[C@@H](O)[C@H](O)[C@@H]4O[C@H]4O[C@H](CO)[C@@H](O)[C@H](O)[C@@H]4O)[C@@H]3O)CC2)nn1)NC=O)[C@@H](C)O)[C@@H](C)O)[C@@H](C)O)C(C)C)[C@@H](C)O)C(=O)N[C@@H](CCc1cn(C2CCC(OC3O[C@H](CO[C@H]4O[C@H](CO[C@H]5O[C@H](CO)[C@@H](O)[C@H](O)[C@@H]5O[C@H]5O[C@H](CO)[C@@H](O)[C@H](O)[C@@H]5O)[C@@H](O)[C@H](O[C@H]5O[C@H](CO)[C@@H](O)[C@H](O)[C@@H]5O[C@H]5O[C@H](CO)[C@@H](O)[C@H](O)[C@@H]5O)[C@@H]4O)[C@@H](O)[C@H](O[C@H]4O[C@H](CO)[C@@H](O)[C@H](O)[C@@H]4O[C@H]4O[C@H](CO)[C@@H](O)[C@H](O)[C@@H]4O[C@H]4O[C@H](CO)[C@@H](O)[C@H](O)[C@@H]4O)[C@@H]3O)CC2)nn1)C(=O)N[C@@H](CCCNC(=N)N)C(=O)N[C@@H](CO)C(=O)N[C@H](C(=O)N1CCC[C@H]1C(=O)N[C@@H](Cc1c[nH]c2ccccc12)C(=O)N[C@@H](Cc1ccc(O)cc1)C(=O)N[C@H](C(=O)N[C@@H](Cc1ccc(O)cc1)C(=O)N[C@@H](CCCNC(=N)N)C(=O)N[C@@H](Cc1c[nH]c2ccccc12)C(=O)N[C@@H](CC(C)C)C(=O)N1CCC[C@H]1C(=O)N[C@@H](CC(N)=O)C(=O)NCC(=O)N[C@@H](CO)C(=O)NCC(=O)N[C@@H](CO)C(=O)NCC(=O)N[C@@H](CSC1CC(=O)N(CCC(=O)NCCOCCOCCNC(=O)CCCC[C@@H]2SC[C@@H]3NC(=O)N[C@@H]32)C1=O)C(=O)N[C@@H](C)C(=O)O)[C@@H](C)O)[C@@H](C)CC (some centres unmarked) [Clone 10V1-C7A, XATKTNAKREKTXDNHVTIXRSIPWYTYRWLPN]	4.4 nM
